Results on 4 compounds are retold here after PMC3860322 (Leukemia & lymphoma, 2013).

Data set [1] is described as follows: Plasma pharmacokinetics of 17-AAG and its metabolite 17-AG. It counts as in vivo, patients. The note with it: for AUC exposed: combined AUC of 17-AAG and 17-AG.
The subject of data set [2] is acute myeloid leukemia. The note with it: phase I trial in AML, after one cycle of therapy; cited from earlier work.
Data set [3] has as its system cytochrome P450 3A4. The conditions noted are these: cited from earlier work.
[4] abbreviates: 17-AAG in plasma, day 1 (17-AAG alone), 150 mg/m^2, n=8.
The mark [5] stands for this setting: 17-AAG in plasma, day 1 (17-AAG alone), 200 mg/m^2, n=3.
Where [6] appears, read: 17-AAG in plasma, day 4 (17-AAG+PS-341), 150 mg/m^2, n=8.
[7] abbreviates: 17-AAG in plasma, day 4 (17-AAG+PS-341), 200 mg/m^2, n=3.
[8] abbreviates: 17-AAG, day 1 (17-AAG alone), 150 mg/m^2, n=8.
Where [9] appears, read: 17-AAG, day 1 (17-AAG alone), 200 mg/m^2, n=3.
[10] abbreviates: 17-AAG, day 4 (17-AAG+PS-341), 150 mg/m^2, n=8.
Where [11] appears, read: 17-AAG, day 4 (17-AAG+PS-341), 200 mg/m^2, n=3.
Setting [12] is: metabolite 17-AG, day 1 (17-AAG alone), 17-AAG 150 mg/m^2, n=8.
Setting [13] is: metabolite 17-AG, day 1 (17-AAG alone), 17-AAG 200 mg/m^2, n=3.
Where [14] appears, read: metabolite 17-AG, day 4 (17-AAG+PS-341), 17-AAG 150 mg/m^2, n=8.
[15] abbreviates: metabolite 17-AG, day 4 (17-AAG+PS-341), 17-AAG 200 mg/m^2, n=3.

Each structure is given as a SMILES string.

For the compound `C=CCNC1=C2C[C@@H](C)C[C@H](OC)[C@H](O)[C@@H](C)/C=C(\C)[C@H](OC(N)=O)[C@@H](OC)/C=C\C=C(/C)C(=O)NC(=CC1=O)C2=O` [17-AAG, 17-Allylamino-17-demethoxygeldanamycin, reference compound], in data set [1] (17-AAG in plasma, cycle 1 day 1 (17-AAG alone), 17-AAG 200 mg/m^2 IV, n=3), the Cmax – broadly, the peak of the concentration-time curve – turned out to be 3814 ± 578 ng/mL. For the same compound, the AUCtot in data set [1] (setting [4]) came to 5871 ± 2508 ng·h/mL; in data set [1] (setting [5]), 9002 ± 1970 ng·h/mL; in data set [1] (setting [6]) it was 6717 ± 2631 ng·h/mL; in data set [1] (setting [7]), 9142 ± 1358 ng·h/mL. In addition, the “Terminal T1/2” value came to 4.77 ± 1.15 h in data set [1] (setting [4]), 4.59 ± 0.21 h in data set [1] (setting [5]), 4.04 ± 0.86 h in data set [1] (setting [6]) and 3.78 ± 1.29 h in data set [1] (setting [7]). The Clearance in data set [1] (setting [8]) was 29.36 ± 11.11 L/h; in data set [1] (setting [9]), 22.92 ± 4.89 L/h; in data set [1] (setting [10]) it was 24.94 ± 8.10 L/h; in data set [1] (setting [11]), 21.92 ± 3.91 L/h. Moreover, the Vss (commonly the apparent volume that relates the amount in the body to the concentration in plasma or blood) in data set [1] (setting [8]) was 98.10 ± 37.46 L; in data set [1] (setting [9]), 73.30 ± 16.81 L; in data set [1] (setting [10]), 82.36 ± 19.91 L; in data set [1] (setting [11]), 86.83 ± 24.37 L.

As to `CO[C@H]1/C=C\C=C(/C)C(=O)NC2=CC(=O)C(NCCN(C)C)=C(C[C@@H](C)C[C@H](OC)[C@H](O)[C@@H](C)/C=C(\C)[C@@H]1OC(N)=O)C2=O` [alvespimycin], the clinical response entry in data set [2] is given as “three patients achieved a complete remission with incomplete count recovery”.

As to `CC(C)C[C@H](NC(=O)[C@H](Cc1ccccc1)NC(=O)c1cnccn1)B(O)O` [bortezomib], in data set [3], the metabolizing enzyme result was “metabolized by cytochrome P450 3A4”.

As for `CO[C@H]1/C=C\C=C(/C)C(=O)NC2=CC(=O)C(N)=C(C[C@@H](C)C[C@H](OC)[C@H](O)[C@@H](C)/C=C(\C)[C@@H]1OC(N)=O)C2=O` [17-AG, 17-amino-17-demethoxygeldanamycin], the AUC exposed is 12205 ± 8530 ng·h/mL in data set [1] (day 1 (17-AAG alone), 17-AAG 150 mg/m^2, n=8); 18959 ± 3169 ng·h/mL in data set [1] (day 1 (17-AAG alone), 17-AAG 200 mg/m^2, n=3); 14468 ± 7179 ng·h/mL in data set [1] (day 4 (17-AAG+PS-341), 17-AAG 150 mg/m^2, n=8); 22403 ± 1036 ng·h/mL in data set [1] (day 4 (17-AAG+PS-341), 17-AAG 200 mg/m^2, n=3). Moreover, the “change in 17-AG clearance on co-administration with bortezomib” value in data set [1] (day 4 (17-AAG+bortezomib) vs day 1 (17-AAG alone), all 11 patients, p=0.005) is “decrease in clearance”. Further, the “change in 17-AG AUC on co-administration with bortezomib” value in data set [1] (day 4 (17-AAG+bortezomib) vs day 1 (17-AAG alone), all 11 patients, p=.032) is “increase in AUC”. The Cmax in data set [1] (metabolite 17-AG in plasma, day 1 (17-AAG alone), 17-AAG 150 mg/m^2, n=8) is listed as 821 ± 450 ng/mL; in data set [1] (metabolite 17-AG in plasma, day 1 (17-AAG alone), 17-AAG 200 mg/m^2, n=3), 1300 ± 421 ng/mL; in data set [1] (metabolite 17-AG in plasma, day 4 (17-AAG+PS-341), 17-AAG 150 mg/m^2, n=8), 1025 ± 445 ng/mL; in data set [1] (metabolite 17-AG in plasma, day 4 (17-AAG+PS-341), 17-AAG 200 mg/m^2, n=3), 1412 ± 26 ng/mL. The Clearance was determined as 41.35 ± 26.48 L/h in data set [1] (metabolite 17-AG, apparent clearance, day 1 (17-AAG alone), 17-AAG 150 mg/m^2, n=8); 23.07 ± 12.01 L/h in data set [1] (metabolite 17-AG, apparent clearance, day 1 (17-AAG alone), 17-AAG 200 mg/m^2, n=3); 29.87 ± 23.29 L/h in data set [1] (metabolite 17-AG, apparent clearance, day 4 (17-AAG+PS-341), 17-AAG 150 mg/m^2, n=8); 14.86 ± 1.55 L/h in data set [1] (metabolite 17-AG, apparent clearance, day 4 (17-AAG+PS-341), 17-AAG 200 mg/m^2, n=3). Besides, the AUCtot in data set [1] (setting [12]) is 6334 ± 6244 ng·h/mL; in data set [1] (setting [13]), 9957 ± 4258 ng·h/mL; in data set [1] (setting [14]), 7751 ± 5028 ng·h/mL; in data set [1] (setting [15]) it was 13261 ± 1216 ng·h/mL. Moreover, the “Terminal T1/2” value in data set [1] (setting [12]) worked out at 11.16 ± 1.40 h; in data set [1] (setting [13]) it was 7.92 ± 1.76 h; in data set [1] (setting [14]), 10.53 ± 2.20 h; in data set [1] (setting [15]), 7.47 ± 0.73 h. Moreover, the Tmax – broadly, the time from dosing to the highest level – in data set [1] (setting [12]) came to 1.53 ± 0.42 h; in data set [1] (setting [13]) it was 1.53 ± 0.46 h; in data set [1] (setting [14]), 1.85 ± 1.10 h; in data set [1] (setting [15]), 3.72 ± 0.64 h.
